In test [1] the test system is mdx mice. As to the kind of experiment: Centralized nuclei (%) in muscles of mdx mice. Type of test: in vivo, mouse (C57BL/10ScSn-Dmd^mdx/J). As to conditions: T16. The source says:
Tibialis anterior (TA), gastrocnemius (GAS), DIA, and heart were collected from mice maintained under isoflurane anesthesia and sacrificed by cervical dislocation. These muscles were collected from C57BL/10J wt and mdx (5 mice/group) at the end of treatments and from DBA/2J wt and D2.B10 mice (5 mice/group) at two different time points to be examined by a pathologist (for more details see Additional Table 1). Due to the results obtained by the functional tests, muscles from only some treatment groups were analyzed in both DMD models (see Additional Table 1). All the collected muscles were fixed in 10% buffered formalin solution (Bio-optica, Milan, Italy) at + 4 °C for at least 48 h. After fixation, muscular samples were transversely trimmed, caged, and paraffin embedded overnight with an Automated Vacuum Tissue Processor Floor (ETP, Histo-Line Laboratories) and included in paraffin blocks. Serial transverse cross-sections (4 μm thick) were cut with a microtome (Leica RM 2255), collected onto uncoated glass slides, and stained using a standard protocol for hematoxylin and eosin (Mayer hematoxylin & Aqueous G Eosin 1%, Bio-Optica) and Sirius Red staining (Direct Red 80, Sigma-Aldrich). For the image analysis and quantitation, hematoxylin and eosin- and Sirius Red-stained slides were examined with an Olympus BX51 light microscope. From each sample, 1 to 3 random microphotographs at the magnification of × 4 and × 10 (TA, GAS and heart) or × 20 (DIA) were collected using Image-Pro Plus system. The digital images were processed by a pathologist using ImageJ software (U.S. National Institutes of Health, Bethesda, MD, USA). To quantify CSA and centralized nuclei (%) on hematoxylin and eosin-stained sections, one hundred myofibers were manually measured for each muscle/mouse using a tablet pen (Wacom Intruos) and analyzed by the ImageJ software after a linear calibration of 150 μm. The fibrotic area, corresponding to the area stained in red, was compared to the total area of the tissue section, and the results were expressed as percentage fibrosis. The % of fibrosis of muscles in the different treatment groups was expressed by averaging the three values obtained from each muscle.

In test [2] the test system is mdx mice. As to the kind of experiment: Grip strength test (maximal normalized strength, FNmax) in mdx mice. It counts as in vivo, mouse (C57BL/10ScSn-Dmd^mdx/J). The source says:
For the efficacy studies, C57BL/10 J (Stock No: 000665) wild type (wt) and C57BL/10ScSn-Dmd^mdx/J (Stock No: 001801) 7–8-week-old male mice, DBA/2J wt (Stock No: 000671), and D2.B10-Dmd^mdx/J (Stock No: 013141) 6–7-week-old male mice were purchased from The Jackson Laboratories (Bar Harbor, Maine, USA). After 5 days of acclimatization in the animal facility, mice were randomized into different treatment groups based on their BW. C57BL/10J wt mice were assigned to the naive wt group (healthy mice that received no treatment, but were subjected to functional tests), whereas mdx mice were assigned to the following groups (9 mice/group; 4–5 mice/cage): naive mdx (mice that received no treatment, but were subjected to functional tests), vehicle (0.5% methylcellulose, p.o.), and Givinostat (0.1, 0.3, 1, 5, 10, 25, and 37.5 mg/kg, p.o.). DBA/2J mice were assigned to the naive wt group (healthy mice that received no treatment, but were subjected to functional tests), whereas D2.B10 mice were assigned to the following groups (12–13 mice/group; 4–5 mice/gage): vehicle (filtered tap water, p.o.), Givinostat (1, 5, 10, and 37.5 mg/kg, p.o.), prednisone 1 mg/kg, and Deflazacort 1 mg/kg (i.p.).
In the efficacy studies, Givinostat powder (ITF2357) was suspended in 0.5% methylcellulose (Sigma-Aldrich) and administered p.o. (by gavage) at the doses of 0.1, 0.3, 1, 5, 10, 25, and 37.5 mg/kg qdx5x15weeks (administration volume per mouse: 10 mL/kg) in mdx mice (see Additional Figure 1A). Vehicle-treated mdx mice received 0.5% methylcellulose suspension. Givinostat suspension was stored at + 4 °C, and it was freshly prepared every 7 days. […] Water consumption was weekly monitored throughout the entire duration of the study weighing the bottle of each cage (maximum 4 mice per cage). […] All mice were monitored daily and tolerability was evaluated on the basis of BW and clinical signs.
In both efficacy studies, the effectiveness of treatments was evaluated every week by measuring the forelimb strength by a grip strength meter (Ugo Basile SRL, Italy). BW of mdx (see Additional Figure 2) and D2.B10 mice (see Additional Figure 3) was also measured in order to normalize the absolute grip strength of each mouse with respect to its BW. […] The highest recorded value of maximal normalized strength (FNmax) obtained for each mouse at all the time points (from T0 to T15) was used for further analysis.
After taking baseline readings for behavioral assays (FNmax and distance run by the animals), mice were re-randomized based on these two parameters, also considering the previous randomization performed on their BW. […]

As for `CCN(CC)Cc1ccc2cc(COC(=O)Nc3ccc(C(=O)NO)cc3)ccc2c1` [Givinostat], in the test on mdx mice [1] (1 mg/kg), the “Nuclear centralization in DIA” value was 57 ± 2.9%, the “Nuclear centralization in GAS” value amounted to 67.6 ± 2.4% and the “Nuclear centralization in TA” value is on record as 71 ± 1.6%. Moreover, in the test on mdx mice [1] (10 mg/kg), the “Nuclear centralization in DIA” value came to 61.4 ± 3.5%, the “Nuclear centralization in GAS” value worked out at 58 ± 3% and the “Nuclear centralization in TA” value was 73.2 ± 3.7%. Also, in the test on mdx mice [1] (37.5 mg/kg), the “Nuclear centralization in DIA” value is recorded as 41.4 ± 4.5%, the “Nuclear centralization in GAS” value is reported as 61.3 ± 3.8% and the “Nuclear centralization in TA” value was 60.8 ± 2.5%. Also, the “FNmax level on treatment day 49” value with mdx mice [2] (37.5 mg/kg p.o., transient) is reported as “comparable to that of wt healthy mice”. For the same compound, the “Effect on maximal normalized strength (FNmax)” value in the test with mdx mice [2] (0.1-37.5 mg/kg p.o. qdx5x15weeks) is listed as “remarkable, dose-dependent increase of the FNmax”. The “Dose of maximal efficacy on FNmax” value in the test with mdx mice [2] (p.o. qdx5x15weeks) came to 37.5 mg/kg. Besides, in the test on mdx mice [2] (vs vehicle), the “Persistence of beneficial effect on FNmax” value is “remained significant up to day 105”.

The values are drawn from publication PMC8296708, “The pan HDAC inhibitor Givinostat improves muscle function and histological parameters in two Duchenne muscular dystrophy murine models expressing different haplotypes of the LTBP4 gene” (Skeletal Muscle, 2021).
